# Assay results from publication PMC6934184, “Selective DNA-PKcs inhibition extends the therapeutic index of localized radiotherapy and chemotherapy” (The Journal of Clinical Investigation, 2019).
# Molecular target: T1, SNF1LK2 (Homo sapiens, UniProt Q9H0K1)
# T1 construct: purchased Thermo Fisher Scientific (Life Technologies) SelectScreen
# Assay: SelectScreen Z'LYTE
# Format: biochemical
# In short: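 NU5455 was profiled across the SelectScreen Broad panel of kinase activity and binding assays. Z'LYTE reactions such as CSF1R ran at apparent Km ATP, while the Adapta CAMK1 assay used ATP listed as 10. Values are given as percent.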
# T1 sequence (Q9H0K1 whole entry): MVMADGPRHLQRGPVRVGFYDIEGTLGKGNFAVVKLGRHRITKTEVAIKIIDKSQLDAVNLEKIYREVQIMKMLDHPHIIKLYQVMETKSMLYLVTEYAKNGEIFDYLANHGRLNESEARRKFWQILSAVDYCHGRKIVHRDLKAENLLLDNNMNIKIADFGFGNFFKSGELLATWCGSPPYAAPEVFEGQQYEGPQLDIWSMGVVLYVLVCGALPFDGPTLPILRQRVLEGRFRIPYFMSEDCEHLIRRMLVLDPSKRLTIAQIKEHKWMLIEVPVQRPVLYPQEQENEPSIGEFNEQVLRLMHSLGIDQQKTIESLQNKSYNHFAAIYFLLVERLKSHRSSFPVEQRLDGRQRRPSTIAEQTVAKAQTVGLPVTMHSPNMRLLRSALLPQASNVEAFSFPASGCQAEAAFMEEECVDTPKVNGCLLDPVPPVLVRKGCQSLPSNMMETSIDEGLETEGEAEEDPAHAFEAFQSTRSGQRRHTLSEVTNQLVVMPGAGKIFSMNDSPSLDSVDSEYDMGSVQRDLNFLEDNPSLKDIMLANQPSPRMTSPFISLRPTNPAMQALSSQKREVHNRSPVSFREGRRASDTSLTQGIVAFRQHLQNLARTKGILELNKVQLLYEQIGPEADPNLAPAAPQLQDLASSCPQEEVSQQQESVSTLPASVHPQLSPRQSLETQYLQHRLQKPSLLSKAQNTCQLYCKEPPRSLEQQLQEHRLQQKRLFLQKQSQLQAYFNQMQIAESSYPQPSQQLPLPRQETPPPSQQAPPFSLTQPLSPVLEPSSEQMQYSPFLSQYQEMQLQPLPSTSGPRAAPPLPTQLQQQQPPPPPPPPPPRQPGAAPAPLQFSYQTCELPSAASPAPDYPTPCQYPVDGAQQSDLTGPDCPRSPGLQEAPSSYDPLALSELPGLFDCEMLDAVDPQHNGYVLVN
smiles,measurement,value
CN(C(=O)CN1CCOCC1)c1ccc2sc3c(-c4cccc5c(=O)cc(N6CC7CCC(C6)O7)oc45)cccc3c2c1 [NU5455],inhibition at 1 µM,26.6%
